{"source": "patent US20260102377A1", "about": "“COMPOSITIONS AND METHODS FOR TREATING MYASTHENIA GRAVIS” (priority 2022, published 2026)", "key": {"EAMG rats": {"system": "EAMG rats", "assay": "14-day dosing in EAMG animals: grip strength", "assay_type": "in vivo, rat", "description": "To induce EAMG, 250 μL of emulsion of Complete Freund's Adjuvant, consisting of heat-inactivated Mycobacterium tuberculosis H37Ra in non-metabolizable oils, together with Phosphate-Buffered Saline (PBS) and 80 μg of the extracellular α-domain peptide fragment of the human nicotinic acetylcholine receptor (antigen) was injected subcutaneously in seven-week-old, anaesthetized Lewis rats. The disease-inducing antigen was supplied by the Hellenic Pasteur institute3. The emulsion was deposited at the tail base, left hindleg, and right foreleg. After injection, animals were allowed to recover and returned to their home cage maintained in ventilated racks under controlled temperature (20 to 22° C.) and humidity (˜55%) control, under a 12-h light/12-h dark cycle with food and water provided ad libitum. The animals had pathogen free status and the housing and changing system was designed to assure that the pathogen free status was preserved during the study. The EAMG rats were observed, weighed, and scored for MG symptoms weekly until symptoms of MG developed, whereafter animals were observed daily.\nSixteen (16) rats with an EAMG clinical score of 2 were allocated to the study and stratified to one of the two treatment groups (vehicle vs NMD670, 8 rats per group). Stratification was based on rotarod endurance and grip strength performance with the aim to obtain similar average starting points for the two groups. Grip strength and Rotarod performance were measured prior to treatment (day 0) and on days 1, 4, 7, 9, 11 and 14 during treatment. The treatment was administered by per oral gavage. Dosing was twice daily with 20 mg/kg NMD670 or vehicle (sterile water) for 14 days unless the rat was subjected to premature termination due to reaching humane endpoints. The dose solutions for the treatment groups were blinded. Thus, experimenters and subsequent analysis were blinded as to which group received CIC-1 inhibitor and which group received vehicle. Full analysis of data and statistics were concluded before unblinding the data. Plasma samples were obtained on days 0, 1 and 14, with muscle samples obtained on day 14 at termination.\nGrip strength was measured on a BIOSEB BIO-GT3 Grip strength meter (force transducer, S/N 180271). The rat was handled to allow all four paws to grab the mesh on the grip meter and the rat was then pulled 5 times by the base of the tail in the opposite direction of its body orientation, i.e. towards the operator and away from the grip meter. Care was taken to ensure that the force recorded reflected the grip strength of the rat and not the force of the pulls conducted by the operator. There was minimal pause between the 5 repeated pulls with recordings being separated only by the time of handling the rat (few seconds). Measurements were considered invalid if the rat let go with one or more limbs before the pull was initiated. Average values of the 5 pulls per test occasion were used for further data processing."}, "[1]": {"assay": "Phase I clinical trial Part A: pharmacokinetics", "assay_type": "in vivo", "details": "human; for half-life: read-out: T1/2 (mean ± SD, hr) (converted)", "description": "• Collect blood (3 mL recommended) onto wet ice (K2EDTA tubes) • Immediately cool blood on crushed wet ice for maximum of 30 minutes • Harvest plasma as quickly as possible using refrigerated centrifuge by centrifuging at 2000 g for 10 minutes at 4° C. • Keep plasma on wet ice and immediately stabilise with 1:1 (v/v) addition of Water: Orthophosphoric Acid (100:2 v/v) prepared using ≥85% orthophosphoric acid and deionised water (e.g. 750 μL plasma+750 μL stabiliser). • Mix sample thoroughly. • Keep the stabilised plasma on wet ice during subsequent steps. • Divide the stabilised plasma into 5×250 μL aliquots in plastic cryotubes. • Store aliquots at nominal −70° C./−80° C. promptly.\n• 1. Thaw frozen calibration standards, QC samples, blank matrix and study samples on wet ice. • 2. Vortex-mix all samples thoroughly. • 3. On wet ice aliquot 150 μL of calibration standards, QC samples, study samples, and blanks into a 2 mL 96-well plate. For the reagent blank add the same volume of Water. • 4. On wet ice add 25 μL of Methanol:Water (50:50) to wells containing blanks and the same volume of ISTD intermediate solution to all other wells. • 5. On wet ice add 125 μL of Water to each well. Cap plate and vortex-mix (˜5 minutes, 1000 rpm). • 6. Centrifuge plate (˜3000 g, 3 minutes, room temperature). • 7. Condition SPE plate (Waters Oasis HLB pElution) with 250 μL Methanol. • 8. Condition SPE plate with 250 μL of Water. • 9. Load 250 μL of the sample onto the SPE plate (aspirate from the rim of the cone to avoid any debris collected at the bottom of the well). Pass through using minimum pressure. • 10. Wash SPE plate with 250 μL of Water. • 11. Wash SPE plate with 250 μL of Methanol:Water (5:95). Briefly increase pressure for one minute to ensure sorbent is partially dried. • 12. Elute from SPE plate into a 1.2 mL 96-well plate using 30 μL of Methanol. Stand for one minute then pass through using absolute minimum pressure. • 13. Elute again with another 30 μL of Methanol, collecting into the same plate. Briefly increase pressure for one minute to complete the elution. • 14. Add 125 μL of Ammonium Formate 10 mM (aq):Formic Acid (100:0.3) to each well. Cap plate and vortex mix (˜1 minute, ≥1200 rpm). • 15. Store plate refrigerated prior to analysis.\nSubjects received 800 mg NMD670."}}, "note": "Where two headings read alike, the source gives them in different places."}
{"smiles": "C[C@H](Oc1ccc(Br)cc1-c1ccon1)C(=O)O", "note": "[NMD670, (2S)-2-[4-bromo-2-(1,2-oxazol-3-yl)phenoxy]propanoic acid]", "values": [{"measurement": "Grip strength over vehicle group throughout the period of treatment", "setting": "EAMG rats; 14-day chronic dosing, 20 mg/kg twice daily", "value": "increased grip strength"}, {"measurement": "Grip strength relative to bodyweight", "setting": "EAMG rats; day 0 (prior to treatment), 20 mg/kg twice daily per oral, P > 0.9999 vs vehicle", "value": "4.8 ± 0.17"}, {"measurement": "Grip strength relative to bodyweight", "setting": "EAMG rats; day 1, 20 mg/kg twice daily per oral, P = 0.1225 vs vehicle", "value": "5.5 ± 0.46"}, {"measurement": "Grip strength relative to bodyweight", "setting": "EAMG rats; day 4, 20 mg/kg twice daily per oral, P = 0.0629 vs vehicle", "value": "5.4 ± .038"}, {"measurement": "Grip strength relative to bodyweight", "setting": "EAMG rats; day 7, 20 mg/kg twice daily per oral, P = 0.7266 vs vehicle", "value": "4.9 ± 0.26"}, {"measurement": "Grip strength relative to bodyweight", "setting": "EAMG rats; day 9, 20 mg/kg twice daily per oral, P = 0.2100 vs vehicle", "value": "5.0 ± 0.27"}, {"measurement": "Grip strength relative to bodyweight", "setting": "EAMG rats; day 11, 20 mg/kg twice daily per oral, P = 0.0206 vs vehicle", "value": "5.4 ± 0.41"}, {"measurement": "Grip strength relative to bodyweight", "setting": "EAMG rats; day 14, 20 mg/kg twice daily per oral, P = 0.1010 vs vehicle", "value": "5.1 ± 0.47"}, {"measurement": "AUC(0-inf)", "setting": "[1]; female, plasma, po, 800 mg, 800 mg (female), single oral dose, read-out: AUC0-infinity (Mean ± SD, h · ng/mL)", "value": "256 ± 56.2", "unit": "µg·h/mL"}, {"measurement": "half-life", "setting": "[1]; female, plasma, po, 800 mg, 800 mg (female), single oral dose", "value": "5.55 ± 0.55", "unit": "h"}, {"measurement": "Linearity of PK parameters", "setting": "[1]; phase 1 FIH study", "value": "approximately linear and predictable"}, {"measurement": "half-life", "setting": "[1]; male, plasma, po, 800 mg, 800 mg fasted (male), single oral dose", "value": "5.39 ± 0.82", "unit": "h"}, {"measurement": "half-life", "setting": "[1]; male, plasma, po, 800 mg, 800 mg fed (male), single oral dose", "value": "5.02 ± 1.04", "unit": "h"}]}
